# Source: PubChem BioAssay AID1259407 (Chemical Carcinogenesis Research Information System (CCRIS), 2018)
# Calls of active or inactive are those of the source. How the calls were made is not given here.
# Test system: CCRIS mutagenicity, Ames/micronucleus/aberration tests
# Experiment: CCRIS mutagenicity studies
# [1] = Test System: AMES SALMONELLA TYPHIMURIUM, Strain/Indicator: TA98, Metabolic Activation: NONE, Method: PREINCUBATION
# [2] = Test System: AMES SALMONELLA TYPHIMURIUM, Strain/Indicator: TA98, Metabolic Activation: NONE, Method: STANDARD PLATE
# [3] = Test System: AMES SALMONELLA TYPHIMURIUM, Strain/Indicator: TA100, Metabolic Activation: HAMSTER, LIVER, S-9, AROCLOR 1254 (10%), Method: PREINCUBATION
# [4] = Test System: AMES SALMONELLA TYPHIMURIUM, Strain/Indicator: TA100, Metabolic Activation: NONE, Method: PREINCUBATION
# [5] = Test System: AMES SALMONELLA TYPHIMURIUM, Strain/Indicator: TA100, Metabolic Activation: NONE, Method: STANDARD PLATE
# [6] = Test System: AMES SALMONELLA TYPHIMURIUM, Strain/Indicator: TA100, Metabolic Activation: RAT, LIVER, S-9, AROCLOR 1254 (10%), Method: PREINCUBATION
# [7] = Test System: AMES SALMONELLA TYPHIMURIUM, Strain/Indicator: TA100, Metabolic Activation: RAT, LIVER, S-9, PCB, Method: PREINCUBATION
# [8] = Test System: AMES SALMONELLA TYPHIMURIUM, Strain/Indicator: TA1535, Metabolic Activation: NONE, Method: PREINCUBATION
# [9] = Test System: AMES SALMONELLA TYPHIMURIUM, Strain/Indicator: TA1535, Metabolic Activation: NONE, Method: STANDARD PLATE
# [10] = Test System: AMES SALMONELLA TYPHIMURIUM, Strain/Indicator: TA1537, Metabolic Activation: HAMSTER, LIVER, S-9, AROCLOR 1254 (10%), Method: PREINCUBATION
# [11] = Test System: AMES SALMONELLA TYPHIMURIUM, Strain/Indicator: TA1537, Metabolic Activation: NONE, Method: PREINCUBATION
# [12] = Test System: AMES SALMONELLA TYPHIMURIUM, Strain/Indicator: TA1537, Metabolic Activation: NONE, Method: STANDARD PLATE
# [13] = Test System: AMES SALMONELLA TYPHIMURIUM, Strain/Indicator: TA1537, Metabolic Activation: RAT, LIVER, S-9, AROCLOR 1254 (10%), Method: PREINCUBATION
# [14] = Test System: AMES SALMONELLA TYPHIMURIUM, Strain/Indicator: TA1538, Metabolic Activation: NONE, Method: STANDARD PLATE
SMILES,mutagenic call [1],mutagenic call [2],mutagenic call [3],mutagenic call [4],mutagenic call [5],mutagenic call [6],mutagenic call [7],mutagenic call [8],mutagenic call [9],mutagenic call [10],mutagenic call [11],mutagenic call [12],mutagenic call [13],mutagenic call [14],further results
NCCNCCNCCNCCN,active; positive,inactive; negative,active; positive,active; positive,inactive; negative,active; positive,inactive; negative,inactive; negative,inactive; negative,inactive; negative,inactive; negative,inactive; negative,inactive; negative,inactive; negative,"mutagenic call (Test System: AMES SALMONELLA TYPHIMURIUM, Strain/Indicator: TA98, Metabolic Activation: RAT, LIVER, S-9, AROCLOR 1254, Method: STANDARD PLATE): inactive; negative; mutagenic call (Test System: AMES SALMONELLA TYPHIMURIUM, Strain/Indicator: TA98, Metabolic Activation: RAT, LIVER, S-9, PCB, Method: PREINCUBATION): inactive; negative; mutagenic call (Test System: AMES SALMONELLA TYPHIMURIUM, Strain/Indicator: TA100, Metabolic Activation: RAT, LIVER, S-9, AROCLOR 1254, Method: STANDARD PLATE): inactive; negative; mutagenic call (Test System: AMES SALMONELLA TYPHIMURIUM, Strain/Indicator: TA1535, Metabolic Activation: RAT, LIVER, S-9, AROCLOR 1254, Method: STANDARD PLATE): inactive; negative; mutagenic call (Test System: AMES SALMONELLA TYPHIMURIUM, Strain/Indicator: TA1537, Metabolic Activation: RAT, LIVER, S-9, AROCLOR 1254, Method: STANDARD PLATE): inactive; negative; mutagenic call (Test System: AMES SALMONELLA TYPHIMURIUM, Strain/Indicator: TA1538, Metabolic Activation: RAT, LIVER, S-9, AROCLOR 1254, Method: STANDARD PLATE): inactive; negative; mutagenic call (Test System: CHINESE HAMSTER OVARY, Strain/Indicator: CHO (HGPRT)/6-THIOGUANINE, Metabolic Activation: NONE): inactive; negative; mutagenic call (Test System: CHINESE HAMSTER OVARY, Strain/Indicator: CHO (HGPRT)/6-THIOGUANINE, Metabolic Activation: RAT, LIVER, S-9, AROCLOR 1254): inactive; negative; mutagenic call (Test System: UDS RAT HEPATOCYTES, Strain/Indicator: THY INCORP, Metabolic Activation: NONE, Method: SCINTILLATION SPECTROMETRY): active; positive"
O=C(Cn1c(=O)sc2ccccc21)OCc1ccccc1,–,inactive; negative,–,–,inactive; negative,–,–,–,inactive; negative,–,–,–,–,inactive; negative,"mutagenic call (Test System: AMES SALMONELLA TYPHIMURIUM, Strain/Indicator: TA97, Metabolic Activation: NONE, Method: STANDARD PLATE): inactive; negative; mutagenic call (Test System: AMES SALMONELLA TYPHIMURIUM, Strain/Indicator: TA97, Metabolic Activation: RAT, LIVER, S-9, DELOR 103, Method: STANDARD PLATE): inactive; negative; mutagenic call (Test System: AMES SALMONELLA TYPHIMURIUM, Strain/Indicator: TA98, Metabolic Activation: RAT, LIVER, S-9, DELOR 103, Method: STANDARD PLATE): inactive; negative; mutagenic call (Test System: AMES SALMONELLA TYPHIMURIUM, Strain/Indicator: TA100, Metabolic Activation: RAT, LIVER, S-9, DELOR 103, Method: STANDARD PLATE): inactive; negative; mutagenic call (Test System: AMES SALMONELLA TYPHIMURIUM, Strain/Indicator: TA1535, Metabolic Activation: RAT, LIVER, S-9, DELOR 103, Method: STANDARD PLATE): inactive; negative; mutagenic call (Test System: AMES SALMONELLA TYPHIMURIUM, Strain/Indicator: TA1538, Metabolic Activation: RAT, LIVER, S-9, DELOR 103, Method: STANDARD PLATE): inactive; negative"
CCCCCN(CCCCC)CCCCC,inactive; negative,–,inactive; negative,inactive; negative,–,inactive; negative,–,inactive; negative,–,inactive; negative,inactive; negative,–,inactive; negative,–,"mutagenic call (Test System: AMES SALMONELLA TYPHIMURIUM, Strain/Indicator: TA98, Metabolic Activation: HAMSTER, LIVER, S-9, AROCLOR 1254 (10%), Method: PREINCUBATION): inactive; negative; mutagenic call (Test System: AMES SALMONELLA TYPHIMURIUM, Strain/Indicator: TA98, Metabolic Activation: RAT, LIVER, S-9, AROCLOR 1254 (10%), Method: PREINCUBATION): inactive; negative; mutagenic call (Test System: AMES SALMONELLA TYPHIMURIUM, Strain/Indicator: TA1535, Metabolic Activation: HAMSTER, LIVER, S-9, AROCLOR 1254 (10%), Method: PREINCUBATION): inactive; negative; mutagenic call (Test System: AMES SALMONELLA TYPHIMURIUM, Strain/Indicator: TA1535, Metabolic Activation: RAT, LIVER, S-9, AROCLOR 1254 (10%), Method: PREINCUBATION): inactive; negative"
C[C@@H]1C[C@]2(O[C@@H]2C)C(=O)O[C@@H]2CCN(C)C/C=C(/COC(=O)[C@]1(C)O)C2=O,–,–,–,–,–,–,active; positive,–,–,–,–,–,–,–,"mutagenic call (Test System: AMES SALMONELLA TYPHIMURIUM, Strain/Indicator: TA100, Metabolic Activation: HAMSTER, LIVER, S-9, PCB, Method: PREINCUBATION): inactive; negative; by authors criteria results are positive; mutagenic call (Test System: UDS RAT HEPATOCYTES, Strain/Indicator: THY INCORP, Metabolic Activation: NONE, Method: AUTORADIOGRAPHY): active; positive"
CNc1snc2ccccc12,–,inactive; negative,–,–,inactive; negative,–,–,–,inactive; negative,–,–,inactive; negative,–,–,"mutagenic call (Test System: AMES SALMONELLA TYPHIMURIUM, Strain/Indicator: TA98, Metabolic Activation: S-9, Method: STANDARD PLATE): inactive; negative; mutagenic call (Test System: AMES SALMONELLA TYPHIMURIUM, Strain/Indicator: TA100, Metabolic Activation: S-9, Method: STANDARD PLATE): inactive; negative; mutagenic call (Test System: AMES SALMONELLA TYPHIMURIUM, Strain/Indicator: TA1535, Metabolic Activation: S-9, Method: STANDARD PLATE): inactive; negative; mutagenic call (Test System: AMES SALMONELLA TYPHIMURIUM, Strain/Indicator: TA1537, Metabolic Activation: S-9, Method: STANDARD PLATE): inactive; negative"
